According to PMC3629230, “Permeability Enhancers Dramatically Increase Zanamivir Absolute Bioavailability in Rats: Implications for an Orally Bioavailable Influenza Treatment” (PLoS ONE, 2013):
Where “and” joins values, the source holds several entries; their conditions need not be identical. Equal entries are not always repeated. Entries after “also recorded” stand apart in the source; their conditions may differ.

Experiments:
[1] = Pharmacokinetics and absolute bioavailability after intraduodenal administration in rats; conditions: for Cmax / Tmax / AUC(0-t) / AUC(0-inf) / half-life / bioavailability: male, Sprague-Dawley, rat, plasma; for AUC(0-t): AUClast; for half-life: t1/2, intraduodenal; for bioavailability: other: intraduodenal, absolute, vs 1.5 mg intravenous
Text: Male Sprague-Dawley rats (Hilltop Labs, Scottdale, PA), 3 animals per treatment group, 250–350 grams in weight, were fitted with a jugular vein cannula (JVC). Animals intended for intraduodenal dosing were also fitted with one or more intraduodenal cannula (IDC) and those intended for intravenous dosing were fitted with a second JVC. Food was withheld from the animals for a minimum of twelve hours prior to test article administration and was returned approximately four hours post-dose. Water was supplied ad libitum.
Intraduodenal doses composed of 1.5 mg of zanamivir and varying amounts of an enhancer (glycerol or Capmul MCM L8) were injected directly into the duodenum via the IDC. To determine absolute bioavailability of the intraduodenal administered drug, intravenous dosing was conducted by the injection of 1.5 mg of zanamivir in 200 µL of PBS through a JVC. For some experiments, the absorption enhancer was administered intraduodenally 2 hr prior to administering 1.5 mg of zanamivir in PBS through a second IDC. Each intraduodenal dose was followed with the introduction of a small air bubble (∼10 µL) in the cannula followed by a flush of 125 µL of PBS to ensure the dose was given in full. The volume of PBS used for cannula flush was consistent across the treatment groups. The cannula was tied to prevent the PBS remaining in the cannula from entering the duodenum.
Blood samples collected via the JVC, approximately 400 µL each, were obtained at 2 min, 5 min, 15 min, 30 min, 60 min, 90 min, and 120 min, with sodium heparin used as an anti-coagulant. Each sample was placed into a chilled tube containing the anticoagulant and kept on ice until centrifugation at 4°C, 3,000× g, for 5 min. The plasma supernatants were stored at −70°C until LC-MS analysis.
Dosing solution samples were assayed by liquid chromatography-mass spectrometry (LC-MS/MS) using electrospray ionization. The chromatographic system consisted of Perkin Elmer series 200 micropumps and autosampler equipped with a Waters Atlantic® HILIC Silica […], 2.1×50 mm column. The mass spectrometer was a PE Sciex API 4000 with electrospray interface in multiple reaction monitoring mode. […] Stock solutions (1 mg/mL zanamivir) were prepared in water. Standards (eight concentrations) were prepared in the appropriate matched matrix (HBSSg or Sprague-Dawley rat plasma containing sodium heparin) and diluted 50-fold with methanol. Experimental samples were identically treated.

[2] = cited from earlier work
Caco-2 cell monolayers = test: Unidirectional (A-to-B) permeability of zanamivir across Caco-2 cell monolayers with and without excipients; type: in vitro ADME; conditions: A-to-B, zanamivir 15 µg/mL
Description: Caco-2 cells were obtained from American Type Culture Collection (Rockville, MD). Stock cultures were maintained in flasks with DMEM medium supplemented with 10% FBS, 1% non-essential amino acids, 1 mmol/L sodium pyruvate, 100 IU/mL penicillin, and 100 µg/mL streptomycin in a humidified incubator (37°C, 5% CO2). Cells were harvested by trypsinization and seeded at 60,000 cells/cm^2 onto Costar Transwell® 12-well dual-chamber plates with collagen-coated, microporous polycarbonate membranes (1.13 cm^2 insert area, 0.4 µm pore size; Corning Life Sciences, Acton, MA) for permeability studies. The culture medium was changed three times per week.
Caco-2 cell monolayers that had grown for at least 20 days were subjected to batch quality control testing in which permeation rates were measured for atenolol, digoxin, estrone-3-sulfate, lucifer yellow (LY), and propranolol. In addition, the transepithelial electrical resistance (TEER) across each experimental monolayer was tested prior to an experiment.
Unidirectional (A-to-B) permeability of zanamivir was determined at 15 µg/mL in the absence and presence of varying concentrations of excipients in Caco-2 cell monolayers. The assay buffer was Hanks' balanced salt solution (HBSS) supplemented with 10 mM 4-(2-hydroxyethyl)-1-piperazineethanesulfonic acid (HEPES) and 15 mM D-glucose (HBSSg), pH 7.4. The dosing solutions on the apical side (0.5 mL) contained either zanamivir and excipients at each concentration being tested or zanamivir only (n = 4), while the receiver buffer in the bottom well (1.5 mL) was always excipient-free. The Caco-2 cell monolayers were incubated for 120 min in a humidified incubator (37°C, 5% CO2) after dosing in the apical chambers. Aliquots (200 µL each) of receiver buffer were sampled at 60 min, 90 min, and 120 min after dosing, with replacement by the same volume of blank buffer (at 60 min and 90 min). Donors were sampled at 0 and 120 min.
Experimental samples were identically treated.

[3] = intraduodenal, 1.5 mg/animal in PBS, Capmul MCM L8 given 2 hr prior
[4] = intraduodenal, 1.5 mg/animal in PBS, glycerol given 2 hr prior
[5] = intraduodenal, 1.5 mg/animal, 50 µL vehicle Capmul MCM L8
[6] = intraduodenal, 1.5 mg/animal, 50 µL vehicle PBS
[7] = intraduodenal, 1.5 mg/animal, 50 µL vehicle glycerol
[8] = 0.75 mg, Figure 5 experiment, intraduodenal, 0.75 mg zanamivir, 50 µL Capmul MCM L8
[9] = 1.5 mg, intraduodenal, 1.5 mg/animal in PBS, Capmul MCM L8 given 2 hr prior
[10] = 1.5 mg, intraduodenal, 1.5 mg/animal in PBS, glycerol given 2 hr prior
[11] = 1.5 mg, intraduodenal, 1.5 mg/animal, 50 µL vehicle Capmul MCM L8
[12] = 1.5 mg, intraduodenal, 1.5 mg/animal, 50 µL vehicle PBS
[13] = 1.5 mg, intraduodenal, 1.5 mg/animal, 50 µL vehicle glycerol
[14] = 1.5 mg, Figure 5 experiment, intraduodenal, 1.5 mg zanamivir, 50 µL Capmul MCM L8
[15] = 3 mg, Figure 5 experiment, intraduodenal, 3.0 mg zanamivir, 50 µL Capmul MCM L8

## CC(=O)N[C@H]1[C@H]([C@H](O)[C@H](O)CO)OC(C(=O)O)=C[C@@H]1N=C(N)N [Zanamivir, zanamivir]
[1]; both enhancers (glycerol, Capmul MCM L8) given 2 hr prior to zanamivir
  Absolute bioavailability relative to negative control: equivalent to that of the negative control
[1]; enhancer (glycerol or Capmul MCM L8) given intraduodenally 2 hr prior to 1.5 mg zanamivir in PBS
  Absorption enhancement: No absorption enhancement; also recorded: no enhanced absorption
[1]; intraduodenal, 1.5 mg zanamivir in 50 µL glycerol
  Increase of absolute bioavailability compared to PBS: 4.7 fold
[1]; [3]
  Dose-normalized AUClast: 12.7 kg·ng·h/mL/mg
  Dose-normalized AUC∞: 13 kg·ng·h/mL/mg
[1]; [4]
  Dose-normalized AUClast: 21.1 kg·ng·h/mL/mg
  Dose-normalized AUC∞: 29.1 kg·ng·h/mL/mg
[1]; [5]
  Dose-normalized AUClast: 715 kg·ng·h/mL/mg
  Dose-normalized AUC∞: 753 kg·ng·h/mL/mg
[1]; [6]
  Dose-normalized AUClast: 30.6 kg·ng·h/mL/mg
  Dose-normalized AUC∞: 46.6 kg·ng·h/mL/mg
[1]; [7]
  Dose-normalized AUClast: 145 kg·ng·h/mL/mg
  Dose-normalized AUC∞: 153 kg·ng·h/mL/mg
[1]; [8]
  Cmax: 1430 ng/mL
  Tmax: 4.8 min
[1]; [9]
  AUC(0-t): 66.1 ng·h/mL
  AUC(0-inf): 69.8 ng·h/mL
  Cmax: 48.6 ng/mL
  Tmax: 60 min
  bioavailability: 0.66%
[1]; [10]
  AUC(0-t): 112 ng·h/mL
  AUC(0-inf): 156 ng·h/mL
  Cmax: 77.4 ng/mL
  Tmax: 34.8 min
  bioavailability: 1.1%
[1]; [11]
  AUC(0-t): 3800 ng·h/mL
  AUC(0-inf): 4000 ng·h/mL
  Cmax: 7230 ng/mL
  Tmax: 4.8 min
  bioavailability: 37.7%
[1]; [12]
  AUC(0-t): 162 ng·h/mL
  AUC(0-inf): 244 ng·h/mL
  Cmax: 134 ng/mL
  Tmax: 30 min
  bioavailability: 1.59%
[1]; [13]
  AUC(0-t): 754 ng·h/mL
  AUC(0-inf): 781 ng·h/mL
  Cmax: 948 ng/mL
  Tmax: 30 min
  bioavailability: 7.53%
[1]; 1.5 mg, Figure 4 experiment, intraduodenal, 1.5 mg zanamivir, 25 µL Capmul MCM L8
  Cmax: 1650 ng/mL
[1]; 1.5 mg, Figure 4 experiment, intraduodenal, 1.5 mg zanamivir, 50 µL Capmul MCM L8
  Cmax: 2120 ng/mL
[1]; 1.5 mg, Figure 4 experiment, intraduodenal, 1.5 mg zanamivir, 75 µL Capmul MCM L8
  Cmax: 2570 ng/mL
[1]; [14]
  Cmax: 3920 ng/mL
  Tmax: 4.8 min
[1]; 1.5 mg, 1.5 mg/animal in PBS, Capmul MCM L8 given 2 hr prior
  half-life: 51.6 min
[1]; 1.5 mg, 1.5 mg/animal in PBS, glycerol given 2 hr prior
  half-life: 74.4 min
[1]; 1.5 mg, 1.5 mg/animal, 50 µL vehicle Capmul MCM L8
  half-life: 29.4 min
[1]; 1.5 mg, 1.5 mg/animal, 50 µL vehicle PBS
  half-life: 49.8 min
[1]; 1.5 mg, 1.5 mg/animal, 50 µL vehicle glycerol
  half-life: 17.4 min
[1]; 1.5 mg, intraduodenal, 1.5 mg zanamivir mixed with Capmul MCM L8
  Tmax: 5 min
[1]; 1.5 mg/animal, intraduodenal, 50 µL vehicle Capmul MCM L8
  Cmax: > 7200 ng/mL
[1]; [15]
  Cmax: 7000 ng/mL
  Tmax: 8.4 min
[2]
  Oral bioavailability: under 2%
Caco-2 cell monolayers; 0.25% Capmul MCM L8, pH 7.4
  Increase in apparent permeability coefficient (Papp) compared to no-enhancer control: > 5 fold and 5.2 fold
Caco-2 cell monolayers; 5% glycerol, pH 7.4
  Increase in apparent permeability coefficient (Papp) compared to no-enhancer control: > 5 fold and 5.6 fold
